Data: the NIST ThermoML archive (doi:10.1021/je900690d)

Test: mean ionic activity coefficient (dimensionless); mn = molality of the nth substance listed, in mol/kg
Details: 101 kPa, Liquid, Electrochemical Cell

[Cl-].[K+] [potassium chloride] + O
Details | mean ionic activity coefficient
278.15 K, m1 = 0.0025 | 0.9474
278.15 K, m1 = 0.0054 | 0.9254
278.15 K, m1 = 0.0083 | 0.91
278.15 K, m1 = 0.014 | 0.8876
278.15 K, m1 = 0.0224 | 0.8637
278.15 K, m1 = 0.034 | 0.8398
278.15 K, m1 = 0.051 | 0.8137
278.15 K, m1 = 0.0752 | 0.7863
278.15 K, m1 = 0.1147 | 0.754
278.15 K, m1 = 0.1839 | 0.7149
278.15 K, m1 = 0.277 | 0.6787
278.15 K, m1 = 0.3883 | 0.6474
278.15 K, m1 = 0.5559 | 0.6129
278.15 K, m1 = 0.7102 | 0.5888
278.15 K, m1 = 0.8997 | 0.5653
278.15 K, m1 = 1.063 | 0.5488
278.15 K, m1 = 1.246 | 0.5333
278.15 K, m1 = 1.405 | 0.522
278.15 K, m1 = 1.547 | 0.5131
288.15 K, m1 = 0.0026 | 0.946
288.15 K, m1 = 0.005 | 0.9269
288.15 K, m1 = 0.0077 | 0.9118
288.15 K, m1 = 0.0129 | 0.8901
288.15 K, m1 = 0.0183 | 0.8733
288.15 K, m1 = 0.026 | 0.8543
288.15 K, m1 = 0.0362 | 0.8346
288.15 K, m1 = 0.0512 | 0.8123
288.15 K, m1 = 0.0744 | 0.7864
288.15 K, m1 = 0.1053 | 0.7607
288.15 K, m1 = 0.1534 | 0.7316
288.15 K, m1 = 0.2433 | 0.6945
288.15 K, m1 = 0.3142 | 0.6736
288.15 K, m1 = 0.4008 | 0.6536
288.15 K, m1 = 0.506 | 0.6346
288.15 K, m1 = 0.6305 | 0.6167
288.15 K, m1 = 0.7893 | 0.5987
288.15 K, m1 = 0.9633 | 0.5828
288.15 K, m1 = 1.142 | 0.5695
288.15 K, m1 = 1.301 | 0.5594
288.15 K, m1 = 1.44 | 0.5515
288.15 K, m1 = 1.567 | 0.545
298.15 K, m1 = 0.0025 | 0.9465
298.15 K, m1 = 0.0049 | 0.9271
298.15 K, m1 = 0.0077 | 0.9114
298.15 K, m1 = 0.0132 | 0.8888
298.15 K, m1 = 0.019 | 0.8713
298.15 K, m1 = 0.0272 | 0.8519
298.15 K, m1 = 0.0384 | 0.8318
298.15 K, m1 = 0.0529 | 0.8116
298.15 K, m1 = 0.0731 | 0.7899
298.15 K, m1 = 0.1027 | 0.766
298.15 K, m1 = 0.1458 | 0.7404
298.15 K, m1 = 0.2002 | 0.7169
298.15 K, m1 = 0.2643 | 0.6961
298.15 K, m1 = 0.3687 | 0.6714
298.15 K, m1 = 0.5383 | 0.6442
298.15 K, m1 = 0.7187 | 0.6245
298.15 K, m1 = 0.8905 | 0.6109
298.15 K, m1 = 1.09 | 0.599
298.15 K, m1 = 1.24 | 0.5921
298.15 K, m1 = 1.398 | 0.5862
308.15 K, m1 = 0.0025 | 0.9451
308.15 K, m1 = 0.005 | 0.9256
308.15 K, m1 = 0.0073 | 0.9123
308.15 K, m1 = 0.0099 | 0.9007
308.15 K, m1 = 0.0151 | 0.8818
308.15 K, m1 = 0.0226 | 0.8616
308.15 K, m1 = 0.0332 | 0.8402
308.15 K, m1 = 0.0491 | 0.8165
308.15 K, m1 = 0.075 | 0.7889
308.15 K, m1 = 0.1006 | 0.7687
308.15 K, m1 = 0.1313 | 0.7499
308.15 K, m1 = 0.1962 | 0.7209
308.15 K, m1 = 0.2752 | 0.6962
308.15 K, m1 = 0.3636 | 0.6759
308.15 K, m1 = 0.4739 | 0.657
308.15 K, m1 = 0.6044 | 0.6402
308.15 K, m1 = 0.7598 | 0.6252
308.15 K, m1 = 0.9162 | 0.6138
308.15 K, m1 = 1.087 | 0.6044
308.15 K, m1 = 1.251 | 0.5978
308.15 K, m1 = 1.397 | 0.5934
308.15 K, m1 = 1.526 | 0.5906
